Measured values: publication PMC5283573 (Biochemistry, 2016)

Key:
[1] = target: T1, imidazole glycerol phosphate synthase (IGPS), HisH-HisF heterodimer (Thermotoga maritima, UniProt Q9X0C6+Q9X0C8); assay: glutaminase assay, coupled glutamate dehydrogenase/APAD; format: biochemical
[2] = target: T1, imidazole glycerol phosphate synthase (IGPS), HisH-HisF heterodimer; assay: isothermal titration calorimetry; format: binding

SMILES: CCC(CNCCO)Nc1nc2c(c(=O)n(C)c(=O)n2C)n1Cc1ccccc1 (centres unmarked) [compound 3, 7-benzyl-8-[(1-{[(2-hydroxyethyl)amino]methyl}propyl)amino]-1,3-dimethyl-2,3,6,7-tetrahydro-1H-2,6-purinedione]
- Ki [1]: 900 ± 70 µM
- Kd [2]: 1500 ± 300 µM
